Legend:
[1] = test system: erythroid progenitor cells; assay: Enucleated erythroid cell density over time in cultures of erythroid progenitor cells (FIG. 2); type: cell-based; details: culture medium including the substance during maturation; compared to methods without it
[2] = test system: erythroid progenitor cells; assay: Total cell density over time in cultures of erythroid progenitor cells (FIG. 1); type: cell-based; details: culture medium including the substance during maturation; compared to methods without it
[3] = test system: erythroid cells generated from human CD34+ hematopoietic stem cells; assay: Three-stage erythroid culture; maturation-phase (third) medium supplemented; FACS-based cell counting
Method: The effect of hypotaurine alone or in combination with myo-inositol on erythroid progenitor cell cultures was examined. Human CD34^+ hematopoietic stem cells (HSCs) were cultured in a three-stage process to generate enucleated erythroid cells. In the first stage, the CD34^+ HSCs were expanded in a T-flask in a first culture medium containing IMDM supplemented recombinant human insulin, recombinant human transferrin, recombinant human SCF, recombinant IL-3, recombinant Flt-3 ligand, and recombinant human IL-3. Subsequently, cells were transduced with a lentiviral vector encoding phenylalanine ammonia lyase. After transduction, cells were cultured in a 50 L bioreactor culture vessel containing a second culture medium containing IMDM, supplemented with recombinant human erythropoietin, recombinant human SCF, recombinant human IL3, recombinant human insulin, dexamethasone, and recombinant human transferrin. For the third stage of the process (maturation phase), an aliquot of cells was seeded into 24 well plate containing a third culture medium containing IMDM supplemented with recombinant human EPO, recombinant human SCF, recombinant human insulin, recombinant transferrin, human AB serum, and human plasma.
[…] Of note, the first, second and third culture media included a basal media (i.e., IMDM) including 0.0072 g/L of myo-inositol. Periodic sampling and cell counting was performed during the third stage using a fluorescence-activated cell sorting-based cell counter.

[4] = third culture media supplemented with taurine, compared to control culture conditions (data not shown)

Row | Compound | number of enucleated erythroid cells [1] | rate of enucleation [1] | cell proliferation [2] | total cell density of erythroid cells ([3]; 1.0 g/L hypotaurine in third culture medium, 24 well plate, compared to control culture conditions (FIG. 1)) | enucleated erythroid cell density ([3]; 1.0 g/L hypotaurine in third culture medium, 24 well plate, compared to control culture conditions (FIG. 2)) | enucleated erythroid cell density [3, 4] | total cell density of erythroid cells [3, 4]
1 | NCCS(=O)O [hypotaurine] | increased | increased | increased | significantly increase | significantly increase |  | 
2 | NCCS(=O)(=O)O [taurine] | increased | increased | increased |  |  | significant increase | significant increase

— patent publication US20210147802A1, “METHODS OF GENERATING ENUCLEATED ERYTHROID CELLS USING TAURINE OR HYPOTAURINE” (Rubius Therapeutics, Inc., priority 2019, published 2021)
